Measured values as given in BindingDB's records for patent US20250129067 (Progentos Therapeutics, 2025).

Target: Platelet-derived growth factor receptor alpha (Homo sapiens, UniProt P16234)
Assay: PDGFRα Kinase Assay
Procedure: The PDGFRα enzyme assays were conducted per the manufacturer's directions (Promega PDGFRα Kinase Enzyme System and ADP Glo Assay Cat #V8011). […] 20 ng of purified PDGFRα protein was added to the test article. […] ADP-Glo was added to halt the kinase reaction and deplete the remaining ATP. Kinase detection reagent, containing luciferase and luciferin, was used to convert the ADP signal into luminescence. Luminescence was measured using a Molecular Devices Spectramax ID5 and compared to a standard curve to determine kinase activity. IC50s were calculated using Prism 9, Graphpad software.

Sequence of Platelet-derived growth factor receptor alpha (P16234 whole entry): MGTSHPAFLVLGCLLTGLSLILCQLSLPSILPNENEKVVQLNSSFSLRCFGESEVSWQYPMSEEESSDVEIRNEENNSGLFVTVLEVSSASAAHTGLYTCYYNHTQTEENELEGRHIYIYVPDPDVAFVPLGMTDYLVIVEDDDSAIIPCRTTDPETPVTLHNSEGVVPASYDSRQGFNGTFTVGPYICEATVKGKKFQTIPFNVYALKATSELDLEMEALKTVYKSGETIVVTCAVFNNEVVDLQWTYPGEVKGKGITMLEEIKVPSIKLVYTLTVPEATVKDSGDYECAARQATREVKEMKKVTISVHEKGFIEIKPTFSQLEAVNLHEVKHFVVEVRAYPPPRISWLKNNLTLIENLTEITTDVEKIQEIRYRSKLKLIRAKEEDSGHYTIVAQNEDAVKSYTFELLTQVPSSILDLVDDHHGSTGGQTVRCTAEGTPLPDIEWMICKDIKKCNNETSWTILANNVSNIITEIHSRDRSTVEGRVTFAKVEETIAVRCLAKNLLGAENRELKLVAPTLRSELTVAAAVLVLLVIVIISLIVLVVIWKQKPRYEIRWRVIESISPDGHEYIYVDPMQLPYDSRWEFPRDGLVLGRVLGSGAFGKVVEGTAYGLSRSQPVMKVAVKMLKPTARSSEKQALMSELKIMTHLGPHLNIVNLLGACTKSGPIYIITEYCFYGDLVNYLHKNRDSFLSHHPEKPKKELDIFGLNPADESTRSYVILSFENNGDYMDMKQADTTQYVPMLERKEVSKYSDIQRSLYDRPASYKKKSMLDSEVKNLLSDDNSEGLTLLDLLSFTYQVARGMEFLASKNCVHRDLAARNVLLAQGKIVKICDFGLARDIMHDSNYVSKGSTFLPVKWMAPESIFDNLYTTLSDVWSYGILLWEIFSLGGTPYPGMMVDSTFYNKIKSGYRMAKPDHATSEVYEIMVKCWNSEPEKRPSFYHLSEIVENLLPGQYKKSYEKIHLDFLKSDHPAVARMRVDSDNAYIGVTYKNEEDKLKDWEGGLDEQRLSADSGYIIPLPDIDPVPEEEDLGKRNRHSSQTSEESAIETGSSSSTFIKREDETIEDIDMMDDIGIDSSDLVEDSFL

SMILES	IC50
CN(CCCN(C)c1cnn2cc(-c3cnn(C)c3)ccc12)c1ncc(Cc2ccccc2)cn1	> 10 µM
Cn1cc(-c2ccn3c(N4CCN(C(=O)OC(C)(C)C)CC4)cnc3n2)cn1 [US20250129067, Compound 87]	5.94 µM
Cn1cc(-c2ccc3c(N4CCN(c5ncc(C(O)Cc6ccccc6)cn5)CC4)cnn3c2)cn1 (stereo not drawn) [US20250129067, Compound 167]	0.107 µM
